Source: patent US20130005743A1, “New positive allosteric modulators of nicotinic acetylcholine receptor” (H. Lundbeck A/S, priority 2011, published 2013)

target: T1, human α7 receptor (Homo sapiens, UniProt P36544); test: α7 NNR flux assay (FDSS Ca assay, positive allosteric modulation of acetylcholine response); type: cell-based; details: human α7 receptor stably expressed in rat GH4C1 cells; acetylcholine 20 μM; % modulation relative to PNU-120596 set to 100%
T1 construct: host or cells: rat GH4C1 cell line
T1 sequence (P36544 23-502): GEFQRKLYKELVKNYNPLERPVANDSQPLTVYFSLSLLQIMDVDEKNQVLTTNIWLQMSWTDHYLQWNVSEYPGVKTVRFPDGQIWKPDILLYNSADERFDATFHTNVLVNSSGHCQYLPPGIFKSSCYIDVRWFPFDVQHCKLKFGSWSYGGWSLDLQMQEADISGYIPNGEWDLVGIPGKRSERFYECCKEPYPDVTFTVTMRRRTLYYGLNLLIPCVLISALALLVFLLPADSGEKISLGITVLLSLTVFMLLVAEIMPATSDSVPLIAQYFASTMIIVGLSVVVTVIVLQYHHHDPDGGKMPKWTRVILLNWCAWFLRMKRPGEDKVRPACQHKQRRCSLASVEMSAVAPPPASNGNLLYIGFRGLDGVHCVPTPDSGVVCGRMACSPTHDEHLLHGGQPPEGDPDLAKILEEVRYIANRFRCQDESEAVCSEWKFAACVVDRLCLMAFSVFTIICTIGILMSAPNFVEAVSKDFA
Experimental: The nicotinic acetylcholine receptor α7 is a calcium-permeable ion channel, whose activity can be measured by over expression in mammalian cells or oocytes. In this version of the assay, the human α7 receptor is stably expressed in the rat GH4C1 cell line. The assay was used to identify positive allosteric modulators (PAMs) of the α7 receptor. Activation of the channel was measured by loading cells with the calcium-sensitive fluorescent dye. Calcium-4 (Assay kit from Molecular Devices), and then measuring real-time changes, in fluorescence upon treatment with test compounds.
The cell line ChanClone GH4C1-nAChRalpha7 from Genionics was seeded from frozen stock in 384-well plates in culture media 2-3 days before experiment to form an approximately 80% confluent layer on the day of experiment.
The cell culture were split into “22.5 cm×22.5 cm”-plates with approximately 100×10^3 cells/cm^2. After four days incubation in a humidified incubator at 37° C. and 5% CO2, it had grown to an 80-90% confluent layer, and the cells were harvested.
Two or three days before the experiment the cells were seeded in 384 well plates from Greiner bio-one (781946, CELLCOAT, Poly-D-Lysine, black, μClear).
The cells were seeded in 384 well plates with 30 μL/well (30000 cells/well) while stirring the cell suspension or otherwise preventing the cells from precipitating.
The loading buffer was 5% v/v Calcium-4 Kit and 2.5 mM Probenecid in assay buffer.
Culture media was removed from the cell plates and 20 μL loading buffer was added in each well. The cell plates were placed in trays and incubated 90 minutes in the incubator (37° C.). Thereafter the plates were incubated 30 minutes at room temperature, still protected from light.
The assay buffer was HBSS with 20 mM HEPES, pH 7.4 and 3 mM CaCl2.
[…] 10 mM compound solution in DMSO was diluted in 50 μL assay buffer. The final test concentrations in the cell plates were 20-10-5-2.5-1.25-0.625-0.312-0.156-0.078-0.039 μM. Assay buffer and 3 μM PNU-120596 were used for control. The agonist acetylcholine was added to a final concentration of 20 μM (˜EC100). In the FDSS7000 the Ex480-Em540 was measured with 1 second intervals. The baseline was made of 5 frames before addition of test compounds, and 95 frames more were made before addition of acetylcholine. The measurement stopped 30 frames after the 2nd addition. Raw data for each well were collected as “the maximum fluorescence count” in the interval 100-131 seconds and as “the average fluorescence count” in the interval 96-100 seconds. The positive allosteric modulation in the 2nd addition was the enhancement of agonist response with test compound compared to agonist alone.
Results were calculated as % modulation of test compound compared to the reference PNU-120596 set to 100%.

| SMILES | EC50 |
| --- | --- |
| Cc1cc(C(=O)Nc2c(C)ccnc2C)c2c(C)nn(-c3ccccc3)c2n1 [Compound 2, 3,6-Dimethyl-1-phenyl-1H-pyrazolo[3,4-b]pyridine-4-carboxylic acid (2,4-dimethyl-pyridin-3-yl)-amide] | 3.6 µM |
| Cc1cc(C(=O)Nc2c(C)cncc2C)c2c(C)nn(-c3ccccc3)c2n1 [Compound 3, 3,6-Dimethyl-1-phenyl-1H-pyrazolo[3,4-b]pyridine-4-carboxylic acid (3,5-dimethyl-pyridin-4-yl)-amide] | 4.1 µM |
| COc1ccccc1-n1nc(C)c2c(C(=O)Nc3c(C)ccnc3C)cc(C)nc21 [Compound 4, 1-(2-Methoxy-phenyl)-3,6-dimethyl-1H-pyrazolo[3,4-b]pyridine-4-carboxylic acid (2,4-dimethyl-pyridin-3-yl)-amide] | 7.1 µM |
| Cc1ccc(-n2nc(C)c3c(C(=O)Nc4c(C)ccnc4C)cc(C)nc32)cn1 [Compound 10, 3,6-Dimethyl-1-(6-methyl-pyridin-3-yl)-1H-pyrazolo[3,4-b]pyridine-4-carboxylic acid (2,4-dimethyl-pyridin-3-yl)-amide] | 7.2 µM |
| COc1ccc(-n2ncc3c(C(=O)Nc4c(C)ccnc4C)cc(C)nc32)cc1 [Compound 11, 1-(4-Methoxy-phenyl)-6-methyl-1H-pyrazolo[3,4-b]pyridine-4-carboxylic acid (2,4-dimethyl-pyridin-3-yl)-amide] | 2.8 µM |
| Cc1cc(C(=O)Nc2c(C)ccnc2C)c2c(C)nn(-c3ccc(F)cc3)c2n1 [Compound 13, 1-(4-Fluoro-phenyl)-3,6-dimethyl-1H-pyrazolo[3,4-b]pyridine-4-carboxylic acid (2,4-dimethyl-pyridin-3-yl)-amide] | 7.8 µM |
| Cc1cc(C(=O)Nc2c(C)ccnc2C)c2c(C)nn(-c3ccc(C#N)cc3)c2n1 [Compound 14, 1-(4-Cyano-phenyl)-3,6-dimethyl-1H-pyrazolo[3,4-b]pyridine-4-carboxylic acid (2,4-dimethyl-pyridin-3-yl)-amide] | 6.3 µM |
| COc1ccc(-n2nc(C)c3c(C(=O)Nc4c(C)ccnc4C)ccnc32)cc1 [Compound 15, 1-(4-Methoxy-phenyl)-3-methyl-1H-pyrazolo[3,4-b]pyridine-4-carboxylic acid (2,4-dimethyl-pyridin-3-yl)-amide] | 6 µM |
| Cc1cc(C(=O)Nc2c(C)ccnc2C)c2c(C)nn(-c3ccc(OC(F)(F)F)cc3)c2n1 [Compound 17, 3,6-Dimethyl-1-(4-trifluoromethoxy-phenyl)-1H-pyrazolo[3,4-b]pyridine-4-carboxylic acid (2,4-dimethyl-pyridin-3-yl)-amide] | 11 µM |
| Cc1cc(C(=O)Nc2c(C)ccnc2C)c2c(C)nn(-c3ccc(N(C)C)cc3)c2n1 [Compound 23, 1-(4-Dimethylamino-phenyl)-3,6-dimethyl-1H-pyrazolo[3,4-b]pyridine-4-carboxylic acid (2,4-dimethyl-pyridin-3-yl)-amide] | 3.6 µM |
| Cc1cc(C(=O)Nc2c(C)ccnc2C)c2c(C)nn(-c3ccsc3)c2n1 [Compound 25, 3,6-Dimethyl-1-thiophen-3-yl-1H-pyrazolo[3,4-b]pyridine-4-carboxylic acid (2,4-dimethyl-pyridin-3-yl)-amide] | 7.2 µM |
| Cc1cc(C(=O)Nc2c(C)ccnc2C)c2c(C)nn(-c3cncnc3)c2n1 [Compound 26, 3,6-Dimethyl-1-pyrimidin-5-yl-1H-pyrazolo[3,4-b]pyridine-4-carboxylic acid (2,4-dimethyl-pyridin-3-yl)-amide] | 11 µM |
| COc1ccnc(C)c1NC(=O)c1cc(C)nc2c1c(C)nn2-c1ccccc1 [Compound 28, 3,6-Dimethyl-1-phenyl-1H-pyrazolo[3,4-b]pyridine-4-carboxylic acid (4-methoxy-2-methyl-pyridin-3-yl)-amide] | 6.5 µM |
| COc1ccc(-n2nc(C)c3c(C(=O)Nc4cnccc4N(C)C)cc(C)nc32)cc1 [Compound 30, 1-(4-Methoxy-phenyl)-3,6-dimethyl-1H-pyrazolo[3,4-b]pyridine-4-carboxylic acid (4-dimethylamino-pyridin-3-yl)-amide] | 2.7 µM |
| Cc1cc(C(=O)Nc2c(C)ccnc2C)c2c(C)nn(-c3ccc(O)cc3)c2n1 [Compound 37, 1-(4-Hydroxy-phenyl)-3,6-dimethyl-1H-pyrazolo[3,4-b]pyridine-4-carboxylic acid (2,4-dimethyl-pyridin-3-yl)-amide] | 9.5 µM |

The remaining lines, values ahead:

| EC50 | SMILES |
| --- | --- |
| 3.3 µM | COc1ccc(-n2nc(C)c3c(C(=O)Nc4cccnc4C)cc(C)nc32)cc1 [Compound 5, 1-(4-Methoxy-phenyl)-3,6-dimethyl-1H-pyrazolo[3,4-b]pyridine-4-carboxylic acid (2-methyl-pyridin-3-yl)-amide] |
| 2.5 µM | Cc1ccc(-n2nc(C)c3c(C(=O)Nc4c(C)ccnc4C)cc(C)nc32)cc1 [Compound 6, 3,6-Dimethyl-1-p-tolyl-1H-pyrazolo[3,4-b]pyridine-4-carboxylic acid (2,4-dimethyl-pyridin-3-yl)-amide] |
| 2.2 µM | COc1ccc(-n2nc(C)c3c(C(=O)Nc4c(C)ccnc4OC)cc(C)nc32)cc1 [Compound 7, 1-(4-Methoxy-phenyl)-3,6-dimethyl-1H-pyrazolo[3,4-b]pyridine-4-carboxylic acid (2-methoxy-4-methyl-pyridin-3-yl)-amide] |
| 5.1 µM | COc1ccc(-n2nc(C)c3c(C(=O)Nc4cnccc4C)cc(C)nc32)cc1 [Compound 8, 1-(4-Methoxy-phenyl)-3,6-dimethyl-1H-pyrazolo[3,4-b]pyridine-4-carboxylic acid (4-methyl-pyridin-3-yl)-amide] |
| 4 µM | COc1cccc(-n2nc(C)c3c(C(=O)Nc4c(C)ccnc4C)cc(C)nc32)c1 [Compound 9, 1-(3-Methoxy-phenyl)-3,6-dimethyl-1H-pyrazolo[3,4-b]pyridine-4-carboxylic acid (2,4-dimethyl-pyridin-3-yl)-amide] |
| 4.9 µM | COc1ccc(-n2nc(C)c3c(C(=O)Nc4c(C)ncnc4C)cc(C)nc32)cc1 [Compound 12, 1-(4-Methoxy-phenyl)-3,6-dimethyl-1H-pyrazolo[3,4-b]pyridine-4-carboxylic acid (4,6-dimethyl-pyrimidin-5-yl)-amide] |
| 5.5 µM | COc1ccc(-n2nc(C)c3c(C(=O)Nc4c(C)ccnc4C)cc(C)nc32)cn1 [Compound 16, 1-(6-Methoxy-pyridin-3-yl)-3,6-dimethyl-1H-pyrazolo[3,4-b]pyridine-4-carboxylic acid (2,4-dimethyl-pyridin-3-yl)-amide] |
| 6.5 µM | COc1ccc(-n2nc(C)c3c(C(=O)Nc4c(C)cc(C)nc4C)cc(C)nc32)cc1 [Compound 18, 1-(4-Methoxy-phenyl)-3,6-dimethyl-1H-pyrazolo[3,4-b]pyridine-4-carboxylic acid (2,4,6-trimethyl-pyridin-3-yl)-amide] |
| 3.3 µM | Cc1cc(C(=O)Nc2c(C)ccnc2C)c2c(C)nn(-c3ccc(OC(F)F)cc3)c2n1 [Compound 19, 1-(4-Difluoromethoxy-phenyl)-3,6-dimethyl-1H-pyrazolo[3,4-b]pyridine-4-carboxylic acid (2,4-dimethyl-pyridin-3-yl)-amide] |
| 4.6 µM | COc1ccc(-n2nc(C)c3c(C(=O)Nc4cncnc4C)cc(C)nc32)cc1 [Compound 20, 1-(4-Methoxy-phenyl)-3,6-dimethyl-1H-pyrazolo[3,4-b]pyridine-4-carboxylic acid (4-methyl-pyrimidin-5-yl)-amide] |
| 8.9 µM | COc1ccc(-n2nc(C)c3c(C(=O)Nc4cnc(C)cc4C)cc(C)nc32)cc1 [Compound 33, 1-(4-Methoxy-phenyl)-3,6-dimethyl-1H-pyrazolo[3,4-b]pyridine-4-carboxylic acid (4,6-dimethyl-pyridin-3-yl)-amide] |
